These results are taken from PubChem BioAssay AID1259407 (Chemical Carcinogenesis Research Information System (CCRIS), 2018).

Each structure is given as a SMILES string. Calls of active or inactive are those of the source. How the calls were made is not given here.

The series relates to CCRIS mutagenicity, Ames/micronucleus/aberration tests. The experiment in a line: CCRIS mutagenicity studies. The conditions noted are these: Test System: AMES SALMONELLA TYPHIMURIUM
Setting [1] is: Strain/Indicator: TA98, Metabolic Activation: NONE, Method: STANDARD PLATE.
The mark [2] stands for this setting: Strain/Indicator: TA98, Metabolic Activation: RAT, LIVER, S-9, PHENOBARBITAL, Method: STANDARD PLATE.
The mark [3] stands for this setting: Strain/Indicator: TA100, Metabolic Activation: NONE, Method: STANDARD PLATE.
The mark [4] stands for this setting: Strain/Indicator: TA100, Metabolic Activation: RAT, LIVER, S-9, PHENOBARBITAL, Method: STANDARD PLATE.

As to `CC(=O)Nc1cc2c(cc1[N+](=O)[O-])[nH]c1ccccc12`, the mutagenic call under setting [1] was “active; positive”; the mutagenic call under setting [2] was “active; positive”; the mutagenic call under setting [3] is “inactive; negative”; the mutagenic call under setting [4] was “inactive; negative”; the mutagenic call (Strain/Indicator: TA1537, Metabolic Activation: NONE, Method: STANDARD PLATE) is “inactive; negative”; the mutagenic call (Strain/Indicator: TA1537, Metabolic Activation: RAT, LIVER, S-9, PHENOBARBITAL, Method: STANDARD PLATE) was “inactive; negative”. Besides, the mutagenic call was “active; positive” (Strain/Indicator: TA1538, Metabolic Activation: NONE, Method: STANDARD PLATE); “active; positive” (Strain/Indicator: TA1538, Metabolic Activation: RAT, LIVER, S-9, PHENOBARBITAL, Method: STANDARD PLATE); “inactive; negative” (Strain/Indicator: TA1977, Metabolic Activation: NONE, Method: STANDARD PLATE); “inactive; negative” (Strain/Indicator: TA1977, Metabolic Activation: RAT, LIVER, S-9, PHENOBARBITAL, Method: STANDARD PLATE).

As for `C=C(OC)[C@H](CSCC(Br)c1ccccc1)NC(=O)CC` (stereo partly specified), the mutagenic call (Strain/Indicator: TA100, Metabolic Activation: NONE, Method: SPOT TEST) was “inactive; negative”.

For `O=CC1C=COC=C1`, the mutagenic call under setting [1] was “inactive; negative”; the mutagenic call under setting [2] was “inactive; negative”; the mutagenic call under setting [3] was “inactive; negative”; the mutagenic call under setting [4] was “inactive; negative”; the mutagenic call (Strain/Indicator: TM677/8-AZAGUANINE, Metabolic Activation: NONE, Method: STANDARD PLATE) was “inactive; negative”.
